Source: patent publication US20050148495A1, “Methods and materials including for treating acne” (priority 2003, published 2005)
Values after ≈ are worked out from the molar mass of the structure shown. Like-named read-outs stand apart in the source and are kept apart here. Non-standard residues stand in square brackets, D forms with d. Residues, ends and D or L forms follow the SMILES beside them. d1Nal = N[C@H](Cc1cccc2ccccc12)C(=O)O

Experiments:
[1] = in vivo; details: both, Sprague-Dawley, rat, plasma, 0.2 mg/kg
Procedure: Using non-radiolabeled XMP.629, a pharmacokinetic study was conducted in an analogous manner as described above for ^3H-XMP.629. However, in this study, a 0.05 or a 0.2 mg/kg intravenous dose of XMP.629 was administered to 2 males and 2 females rats. Blood samples were collected for 168 hours following dosing and plasma XMP.629 concentrations were measured using liquid chromatography/mass spectrometry (LC/MS).

[2] = parameters: decrease of plasma levels within the first 12 hours: dose or concentration left out as unconfirmed; details: for T1/2α / T1/2β / T1/2γ / T1/4 average / Vc: Sinclair mini-pig
[3] = system: Streptococcus pneumoniae
[4] = system: Macrococcus caseolyticus; details: Macrococcus caseolyticus 29750
[5] = system: E. coli; details: for MBC: agent alone
[6] = system: intact and abraded skin of New Zealand White rabbits; test: Rabbit primary skin irritation test (Draize); format: in vivo; details: 4 hour exposure
Procedure: XMP.629 was evaluated for any potential dermal irritant effects in the rabbit primary skin irritation test for this dermal irritation study, XMP.629 was tested on intact and abraded skin in three New Zealand White rabbits. All animals received 0.5 mL of XMP.629 on each intact and abraded dorsal skin application site. This was accomplished by placing a gauze patch directly on the skin of each application site and saturating the patch with 0.5 mL of the XMP.629 solution. The application sites were then wrapped with gauze bandaging and non-irritating semi-occlusive tape. Elizabethan collars were then applied for the 4 hour exposure period. At the end of the 4 hour exposure period, the collars and wrappings were removed and any residual XMP.629 removed. The test sites were evaluated using the standard Draize scoring system (Draize et al., 1944, J. Pharmacol, Exp. Ther. 82: 377-390) for erythema and edema within 30 to 60 minutes and 24, 48, and 72 hours following patch removal.

[7] = in vivo; details: both, rat, plasma, po, 10 mg/kg, mean; for bioavailability: % F (bioavailability); for AUC: AUCall
[8] = system: CD [Crl:CD (SD)IGS BR] rats; test: Rat subchronic toxicity test, subcutaneous, 30 days; format: in vivo
Procedure: XMP.629 was evaluated for potential subchronic dose toxicity after at least 30 consecutive days of administration to CD®[CrI: CD® (SD)IGS BR] rats. This study consisted of four main study groups, each containing ten rats/sex/group, and four toxicokinetic (TK) groups each containing six rats/sex/group. Three of the four main study and TK groups received XMP.629 by bolus subcutaneous injection at dose levels of 0.3, 1.0, and 3.0 mg/kg/day and at a dose volume of 3.0 mL/kg. One main study and TK group each served as control groups and received a vehicle (saline/sodium acetate buffer, pH 6.0) at the same dose volume. The TK groups were used for the assessment of plasma XMP.629 concentrations and to evaluate potential effects from repeat-dose administration of XMP.629 on antibody formation in a standardized assay. Blood was collected for plasma analysis on Days 1 and 28. […]
All rats were observed twice daily for morbidity, mortality, injury, and availability of food and water. Body weights were measured pretest and weekly for all rats and observations for clinical signs and measurements for food consumption were conducted weekly during the course of the study on main study rats. […] At the end of the treatment period for the main study rats, various hematology, clinical chemistry, and urinalysis parameters were evaluated. […]

[9] = Additional studies: intravenous administration safety; format: in vivo; details: intravenously
Procedure: In additional studies in an acute peritonitis model, mice were challenged intraperitoneally with 1.4×10^7 CFU E. coli 07:K1 and treated intraperitoneally with XMP.629 at 1, 3, or 10 mg/kg or saline. Mice were observed twice daily and mortality was recorded for seven days. Statistical comparisons between the treatment groups and saline were performed using a Chi Square test. […] At 10 mg/kg, 87% protection was observed. In additional studies, XMP.629 was safely administered at a dose of 20 mg/kg intravenously.

[10] = system: protease; test: Resistance to protease degradation
Procedure: In additional studies, a variety of formulations of XMP.629 were tested for stability under various temperatures, such as 25° C., 40° C., and 50° C., and at various time points, such as 0.5, 1, and 2 months.

[11] = system: Corynebacterium; test: microbe, parasite or virus in culture; format: cell-based
Procedure: (§1) Control tubes containing only water or formulation buffer were prepared for each isolate. Initial growth controls were determined by removing 10 μL from the water control tube and diluting it by 100 fold. From this dilution, 10 μL was used for inoculation and for spreading over the surface onto Laked Blood Agar (LBA) (Anaerobe Systems, Morgan Hill, Calif.) plates. The tubes and plates were incubated in an anaerobic atmosphere at 37° C. for 48 h. […] MBC50 and 90 values represent where 50 and 90%, respectively, of the tested strain's MBC values are equal to or less than the indicated concentration.

[12] = 0.1, 0.5, or 1% gel on 15% BSA; limit of quantification 1 ng/mL
Procedure: XMP.629 acetate gel (0.1, 0.5, or 1% XMP.629 acetate per gram gel) was applied to the skin of mini-pigs. The dose of gel in each group was calculated as that amount which would cover 15% of the body surface area (BSA) at a rate of 2 mg of gel per cm2 of BSA. The application area was washed 24 hours following XMP.629 acetate gel application. Blood samples were collected at selected times up to 168 hours after dosing, plasma was extracted, and assayed for XMP.629 using an LC/MS/MS assay (limit of quantification=1 ng/mL).

[13] = system: Enterococcus; format: cell-based
Procedure: as §1

[14] = system: Staphylococcus aureus; details: for MBC: agent alone
[15] = 0.05 mg/kg XMP.629 acetate short IV infusion
[16] = 0.2 mg/kg XMP.629 acetate short IV infusion
[17] = 10 mg/kg XMP.629 acetate oral gavage in 5% glucose
[18] = 10 mg/kg XMP.629 acetate oral gavage in distilled water

Work on `CC(C)C[C@@H](NC(=O)[C@H](N)CCCCN)C(=O)N[C@H](Cc1ccccc1)C(=O)N[C@H](CCCNC(=N)N)C(=O)N[C@H](Cc1cccc2ccccc12)C(=O)N[C@H](CCC(N)=O)C(=O)N[C@H](C)C(=O)N[C@H](CCCCN)C(=O)N[C@H](Cc1cccc2ccccc12)C(N)=O` [XMP.629, NH2-lys-leu-phe-arg-(3-(1-naphthyl)-ala)-gln-ala-lys-(3-(1-naphthyl)-ala)-CONH2] (H-[dK][dL][dF][dR][d1Nal][dQ][dA][dK][d1Nal]-NH2) yielded a clearance ([1]; intravenous) of roughly 5.33 mL/min/kg, a half-life ([1]; intravenous, alpha half-life, two compartment model) of roughly 20 min and a half-life ([1]; intravenous, terminal half-life, two compartment model) of roughly 960 min. For the same compound, the AUC ([1]; iv) was 744 ng·h/mL, the clearance ([1]; iv) was 5.32 mL/min/kg and the Vd ([1]; iv, Vc (volume of distribution of the central compartment), non-labeled XMP.629, 0.2 mg/kg intravenous, LC/MS, two compartment model, mean) was 0.202 L/kg. The Vd ([1]; iv, Vss (volume of distribution at steady state), non-labeled XMP.629, 0.2 mg/kg intravenous, mean) was 2.25 L/kg, the half-life ([1]; iv, t1/2 (average half-life), non-labeled XMP.629, 0.2 mg/kg intravenous, mean) was 26.4 min and the half-life ([1]; iv, t1/2 α (α half-life), non-labeled XMP.629, 0.2 mg/kg intravenous, mean) was 21.2 min. The half-life ([1]; iv, t1/2 β (β half-life), non-labeled XMP.629, 0.2 mg/kg intravenous, mean) was 972 min, the T1/2α [2, 15] was 5.46 min and the T1/2β [2, 15] was 1.28 h. It also gave a T1/2γ [2, 15] of 15.0 h, a T1/4 average [2, 15] of 0.36 h and a Vc [2, 15] of 67.4 mL/kg. It also gave a T1/2α [2, 16] of 1.86 min, a T1/2β [2, 16] of 1.03 h and a T1/2γ [2, 16] of 15.4 h. For the same compound, the T1/4 average [2, 16] was 0.58 h, the Vc [2, 16] was 101.8 mL/kg and the “decrease of plasma levels within the first 12 hours” value ([2]; short IV infusion) was 100 fold. For the same compound, the “Minimum Inhibitory Concentrations” value ([3]; Streptococcus pneumoniae 6303) was 8.00 µg/mL, the “Minimum Inhibitory Concentrations” value ([3]; Streptococcus pneumoniae 10031) was 8.00 µg/mL and the “Minimum Inhibitory Concentrations” value ([3]; Streptococcus pneumoniae 35088) was 2.00 µg/mL. The “volume of the central compartment” value (0.05 mg/kg dose) was 203.2 mL/kg, the “decrease of plasma concentrations within 4 hours of dosing” value (intravenous) was “approximately 100 fold” and the “Minimum Inhibitory Concentrations” value [4] was 2.00 µg/mL. For the same compound, the MBC ([5]; E. coli 706U2-1081) was 16 µg/mL (≈ 12.5 µM), the “XMP.629 MBC” value ([5]; E. coli 4104 LF, XMP.629 alone) was 16 µg/mL and the MBC ([5]; E. coli 4104 LF) was 8 µg/mL (≈ 6.23 µM). For the same compound, the dermal irritation ([6]; abraded skin) was “only mildly irritating”, the dermal irritation ([6]; intact skin) was “not irritating” and the bioavailability [7, 17] was 0.0044%. It also gave a bioavailability [7, 18] of 0.0015%, an AUC [7, 17] of 1.67 ng·h/mL and an AUC [7, 18] of 0.55 ng·h/mL. It also gave a Cmax [7, 17] of 4.6 ng/mL, a Cmax [7, 18] of 1.5 ng/mL and a Tmax [7, 17] of 11.4 min. The Tmax [7, 18] was 8.4 min, the main finding ([8]; 0.3, 1.0, and 3.0 mg/kg/day subcutaneous for 30 days) was “injection site lesions” and the “no-observed-effect level (NOEL) for systemic effects” value ([8]; subcutaneous, 30 days) was “greater than 3.0 mg/kg/day”. For the same compound, the dose safely administered [9] was 20 mg/kg, the protease degradation [10] was “substantially resistant to protease degradation” and the “MIC90, XMP.629 data reported as MBC values” (shortened to “MIC90, XMP.629 data reported”) [11] was 0.25 µg/mL (≈ 0.195 µM). For the same compound, the “MIC90, XMP.629 data reported” value ([11]; in FB (formulation buffer)) was less than 0.25 µg/mL, the “plasma concentrations after topical administration” value [12] was “no measurable plasma concentrations” and the “MIC90, XMP.629 data reported” value [13] was 4 µg/mL (≈ 3.12 µM). The “MIC90, XMP.629 data reported” value ([13]; in FB (formulation buffer)) was 0.5 µg/mL (≈ 0.39 µM), the MBC ([14]; Staphylococcus aureus 076U-550) was 8 µg/mL (≈ 6.23 µM) and the MBC ([14]; Staphylococcus aureus 230U-579) was 8 µg/mL (≈ 6.23 µM). For the same compound, the MBC ([14]; Staphylococcus aureus 314U-148) was 8 µg/mL (≈ 6.23 µM), the “XMP.629 MBC” value ([14]; Staphylococcus aureus 342U-116, XMP.629 alone) was 8 µg/mL and the MBC ([14]; Staphylococcus aureus 342U-116) was 8 µg/mL (≈ 6.23 µM). The MBC ([14]; Staphylococcus aureus 15031-1857) was 4 µg/mL (≈ 3.12 µM).
